Key:
dogs = details: very high doses (27 and 54×ED95); cited from earlier work
Healthy volunteers [1] = experiment: Phase I safety and tolerability in humans; type: in vivo, human
Experimental: (§1) (Abstract available in the final supplement of the Journal of Anesthesia and Analgesia, May 2020 (Volume 30, Issue pages 73-74), which is incorporated herein by reference. Healthy volunteers (n=34) aged 18 to 55 of either gender gave informed consent to an 1RB-approved Phase I protocol, NMB was measured by mechanomyography during sevoflurane (0.5 MAC)/N20 (70%) anesthesia. Each volunteer received a single IV bolus of RP1000,

Rhesus monkeys = experiment: Spontaneous recovery from NMB (twitch 5% to 95% of baseline) after bolus or infusion in Rhesus monkeys under isoflurane; type: in vivo, Rhesus monkey; details: for 5%-95% Interval: mean ± SD
Experimental: Rhesus monkeys under isoflurane anesthesia were administered a bolus dose of either RP2000 or RP1000 at a dose equal to 1× to 10× the ED95 in Rhesus monkeys of the administered compound (ED95,Rp1000=0.040 mg/kg; ED95,RP2000=0.053 mg/kg). Twitch (0.15 Hz) and TOF (2 Hz×2 seconds) were recorded throughout the 6 -10 hours experiments. Time to spontaneous recovery after bolus administration, characterized by recovery of twitch from 5% to 95% of baseline was measured.
Separately, continuous infusions of 20-180 minutes duration were given (to separate subjects), and after discontinuation of infusion, time to spontaneous recovery of NMB, characterized by recovery of twitch from 5% to 95% of baseline was measured.

Healthy volunteers [2] = experiment: Phase I: NMB measured by mechanomyography (twitch T1, TOFR) in healthy volunteers under sevoflurane/N2O; type: in vivo, human; details: for mean time to 95% T1 recovery: spontaneous recovery
From the text: Twitch Height: A peripheral nerve stimulator that applies supramaximal. stimuli to the ulnar nerve at the wrist via surface electrodes was used for neuromuscular monitoring. Following anesthesia induction, single twitch stimuli (0.10 Hz) may be delivered continuously during a 15- to 20- minute period to establish baseline twitch height. Single twitch may continue during and following NMBA administration.
Train-of-Four twitch stimulation pattern ratio (TOFR): The TOP delivers 4 supramaximal electrical impulses that involve four equally strong twitches of the stimulated muscle. A fade of the twitches appears when the neuromuscular blockade increases. Comparison of the fourth twitch (T4) to the first twitch (T1) provides the TOFR.
as §1
An ED95 dose of 0.08 mg/kg was established under sevoflurane anesthesia and a dose of 0.14 mg/kg led to 100% twitch suppression in all subjects. At doses below 0,08 mg/kg, (n=18) 100% twitch inhibition occurred in NONE of the volunteers. […] volunteers, however, who were given doses of 0.08, 0.10, or 0.14 mg/kg, developed 100% block: (n=2 of 6 at 0.08, 6 of 6 at 0.10, and 4 of 4 at 0,14 mg/kg).
During spontaneous recovery from 100% block, in all volunteers, TOE stimulation was applied to the ulnar nerve every 20 seconds and the response of the thumb was monitored continuously until T1 of TOE had recovered to 95% of baseline and TOFR had reached 0.90. The total duration of block was calculated from injection to recovery of T1 to 95 percent of baseline and to recovery of TOFR to 0.90. The 5-95% recovery intervals during recovery from 100% block were measured, Following the completion of data acquisition for all dosage groups, a comparison was made by ANOVA of the 5-95% recovery times resulting after doses of 0.08, 0.10 and 0.14 mg/kg. Recovery data in the 12 volunteers who developed 100% block were then combined to show a single composite recovery pattern. ANOVA was again done to compare the recovery data (5-95% intervals) for the composite group to the corresponding intervals for the separate dosage groups of 0.08, 0.10, and 0,14 mg/kg.

monkeys = details: cited from earlier work
cats = details: cited from earlier work
[3] = in vivo; cited from earlier work
[4] = preclinical studies; cited from earlier work
[5] = human, Composite of 0.08, 0.10, 0.14 mg/kg groups (n=12)
[6] = human, dose 0.08 mg/kg, recovery from 100% block
[7] = human, dose 0.1 mg/kg, recovery from 100% block
[8] = human, dose 0.14 mg/kg, recovery from 100% block
[9] = human, doses ≥ED95, approximately

COc1ccc(C[C@@H]2c3cc(OC)c(OC)cc3CC[N@@+]2(C)CCCOC(=O)/C=C/C(=O)OCCC[N@+]2(C)CCc3cc(OC)c(OC)cc3[C@H]2Cc2ccc(OC)c(OC)c2)cc1OC.[Cl-].[Cl-] [RP1000]
decrease in mean arterial pressure (dogs): 20% | increase in heart rate (dogs): 20% | tolerability (Healthy volunteers [1]; healthy volunteers, 0.02 mg/kg to 0.14 mg/kg): generally well-tolerated | cardiopulmonary side effects (Healthy volunteers [1]; humans, doses up to 0.14 mg/kg): did not result in significant cardiopulmonary side effects | signs of histamine release (Healthy volunteers [1]; humans, doses up to 0.14 mg/kg): nor any signs of histamine release | ED95 in Rhesus monkeys (Rhesus monkeys; Rhesus monkeys, isoflurane anesthesia): 0.040 mg/kg | 5%-95% Interval (Rhesus monkeys; after continuous infusion of 20-180 minutes): 13.1 ± 3.7 min | 5%-95% Interval (Rhesus monkeys; bolus dose 0.05 mg/kg): 15.3 ± 7.5 min | 5%-95% Interval (Rhesus monkeys; bolus dose 0.10 mg/kg): 14.3 ± 6.5 min | 5%-95% Interval (Rhesus monkeys; bolus dose 0.20 mg/kg): 13.3 ± 4.4 min | 5%-95% Interval (Rhesus monkeys; bolus dose 0.40 mg/kg): 15.5 ± 5.1 min | Time to maximum T1 recovery (Healthy volunteers [2]; human, 0.08 mg/kg): about 50 minutes | mean time to T4:T1>0.9 (Healthy volunteers [2]; human, 0.08 mg/kg): about 50 minutes | volunteers who developed 100% block (Healthy volunteers [2]; human, 0.08 mg/kg): 2 of 6 | Time to maximum T1 recovery (Healthy volunteers [2]; human, 0.10 mg/kg): about 70 minutes | mean time to T4:T1>0.9 (Healthy volunteers [2]; human, 0.10 mg/kg): about 70 minutes | volunteers who developed 100% block (Healthy volunteers [2]; human, 0.10 mg/kg): 6 of 6 | mean time from 5% to 95% T1 recovery (Healthy volunteers [2]; human, 0.1 mg/kg and 0.145 mg/kg doses): 35 to 40 min | Time to maximum T1 recovery (Healthy volunteers [2]; human, 0.14 mg/kg): about 70 minutes | mean time to T4:T1>0.9 (Healthy volunteers [2]; human, 0.14 mg/kg): ~80 min | volunteers who developed 100% block (Healthy volunteers [2]; human, 0.14 mg/kg): 4 of 4 | Recovery Time, Recovery Interval 5%-95% (Healthy volunteers [2]; [5]): 37.4 ± 6.4 min | Recovery Time, Recovery Interval 25%-75% (Healthy volunteers [2]; [5]): 14.9 ± 3.0 min | Recovery Time, Recovery Interval 5%-95% (Healthy volunteers [2]; [6]): 34.8 ± 12.5 min | Recovery Time, Recovery Interval 25%-75% (Healthy volunteers [2]; [6]): 15.7 ± 8.4 min | Recovery Time, Recovery Interval 5%-95% (Healthy volunteers [2]; [7]): 39.4 ± 6.5 min | Recovery Time, Recovery Interval 25%-75% (Healthy volunteers [2]; [7]): 15.1 ± 2.0 min | Recovery Time, Recovery Interval 5%-95% (Healthy volunteers [2]; [8]): 35.6 ± 3.1 min | Recovery Time, Recovery Interval 25%-75% (Healthy volunteers [2]; [8]): 14.2 ± 0.9 min | twitch suppression (Healthy volunteers [2]; human, dose of 0.14 mg/kg, in all subjects): 100% | volunteers in whom 100% twitch inhibition occurred (Healthy volunteers [2]; human, doses below 0.08 mg/kg (n=18)): NONE | volunteers who developed 100% block (Healthy volunteers [2]; human, doses of 0.08, 0.10, or 0.14 mg/kg pooled): 12 of 14 | time to 95% T1 suppression (Healthy volunteers [2]; [9]): 2 to 3 min | time to maximum T1 suppression (Healthy volunteers [2]; [9]): 3 to 5 min | duration of NMB effect (Healthy volunteers [2]; human, injection): intermediate duration | onset of action (Healthy volunteers [2]; human, injection): rapid onset of action | mean time to 95% T1 recovery (Healthy volunteers [2]; human, 0.08 mg/kg): approximately 45 minutes | mean time to 95% T1 recovery (Healthy volunteers [2]; human, 0.10 mg/kg): ~55 min | mean time to 95% T1 recovery (Healthy volunteers [2]; human, 0.14 mg/kg): ~60 min | ED95 dose (Healthy volunteers [2]; human, under sevoflurane anesthesia): 0.08 mg/kg | ED 95 for humans (Healthy volunteers [2]; humans): about 0.077 mg/kg | effects on autonomic or circulatory systems (monkeys): no observed ill-elects on autonomic or circulatory systems | effects on autonomic or circulatory systems (cats): no observed ill-elects on autonomic or circulatory systems | potential for bronchoconstrictive activity or histamine release [3]: low potential | time to 100% NMB after administration [4]: ≤ 90 s
